Columns and labels:
[1] = system: polyclonal antibody of the thiamethoxam immunoassay; experiment: Cross reactivity of the thiamethoxam immunoassay (competitive enzyme immunoassay in antibody-coated tubes); assay type: binding; design: key to Percent Reactivity Relative to Thiamethoxam: NR, non-reactive; settings: for Percent Reactivity Relative to Thiamethoxam: test substances in 1% methanol/water, 1000 to 0.01 ng/ml
Experimental: The antibody-coated polystyrene culture tubes are labeled and placed in the tube rack such that the first and last tubes are standards and the remaining standards and samples are mixed. Sample and standard solutions (0.50-ml) are added to the corresponding tubes. A similar volume of enzyme conjugate solution is added. The rack is gently shaken to mix the solutions and set to incubate for 20 min at room temperature. The contents of all tubes are removed by inverting the rack over a stainless steel pan. Each tube is washed to overflowing with distilled water. The rack is inverted over the sink to dump the wash water. Washing is repeated four times. Then the rack is inverted and tapped gently on a paper towel to remove most of the remaining wash. […] The rack is gently shaken at 2.5 min intervals to ensure the enzyme maintains an ample supply of substrate. Generation of the blue colored signal is terminated by addition of acidic stop solution (0.50-ml). The absorbance of the solution in each tube is measured spectrophotometrically at 450 nm.
The concentration of analyte in the samples is determined from a regression function in the form of y=m ln(x)+b.
The cross reactivity, or specificity, of the immunoassay is evaluated to determine if other test substances found in seed coatings would interfere with measurement of thiamethoxam. Test substances are dissolved in 1% methanol/water to concentrations ranging from 1000 to 0.01 ng/ml. Aliquots of each concentration are analyzed as described above. The reactivity of each test substance over this range is determined as previously described in Brady, J. F; Turner, J.; Skinner, D. H. “Application of a triasulfuron enzyme immunoassay to the analysis of incurred residues in soil and water samples.” J. Agric. Food Chem. 1995, 43:2542–2547.

[2] = system: polyclonal antibody of the thiamethoxam immunoassay; experiment: Typical standard curve for the thiamethoxam immunoassay; assay type: binding
Experimental: A portion of the seed extract is diluted into 1% MeOH/H2O until the expected concentration of thiamethoxam is brought within range of the calibration curve, 0.5 to 120 parts per billion. Antibody-coated tubes are labeled and placed in a tube rack such that the first and last tubes are standards and the remaining standards and samples are intermixed. The tube rack grips each tube such that the rack may be inverted without loss of the tubes. An aliquot of a standard or sample (0.5 mL) is added to all corresponding tubes. Enzyme conjugate solution (0.5 mL) is added to all tubes. The rack is shaken gently to mix the contents of all tubes. Tubes are incubated for 20 min at room temperature. The rack is inverted to decant the contents of all tubes. Distilled H2O is added to all tubes to overflowing using a flip-top wash bottle and the wash is decanted. Tubes are washed an additional three times. After the final wash, the rack is inverted and the tubes are gently tapped upon a clean paper towel to remove excess wash. Enzyme substrate (0.5 mL) is added to all tubes which are incubated for 10 min at room temperature. The rack is shaken gently every 2.5 min during this incubation. Acidic stop solution (1 M HCl, 0.5 mL) is added to all tubes to terminate signal generation. […] The absorbances of the standards are used to construct a calibration curve, a regression function in the form of […]. The absorbance of each sample is inserted into the function to determine the concentration of the neonicotinoid pesticide in the diluted sample. The resulting concentration is multiplied by the dilution factor to calculate the amount of neonicotinoid pesticide in the original sample. The function describing the response of the thiamethoxam standards is generated by regression analysis.

SMILES | Percent Reactivity Relative to Thiamethoxam [1] | other results
O=C1C2CC=CCC2C(=O)N1SC(Cl)(Cl)Cl (stereo not drawn) [Captan] | NR | –
CC1=C(C(=O)Nc2ccccc2)SCCO1 [Carboxin] | NR | –
CCOP(=S)(OCC)Oc1nc(Cl)c(Cl)cc1Cl [Chlorpyrifos] | NR | –
CN/C(=N\[N+](=O)[O-])NCc1cnc(Cl)s1 [Clothiadin] | <1.0% | –
CC1COC(Cn2cncn2)(c2ccc(Oc3ccc(Cl)cc3)cc2Cl)O1 (stereo not drawn) [Difenoconazole] | NR | –
N#Cc1c[nH]cc1-c1cccc2c1OC(F)(F)O2 [Fludioxonil] | NR | –
FC(F)(F)C(=NOCC1OCCO1)c1ccc(Cl)cc1 [Fluxofenim] | NR | –
O=[N+]([O-])NC1=NCCN1Cc1ccc(Cl)nc1 [Imidacloprid] | ^2NR | –
COCC(=O)N(c1c(C)cccc1C)[C@H](C)C(=O)OC [Mefenoxam (R-Metalaxyl), Mefenoxam] | NR | –
COCC(=O)N(c1c(C)cccc1C)C(C)C(=O)OC (stereo not drawn) [Metalaxyl] | NR | –
O=[N+]([O-])c1c(Cl)c(Cl)c(Cl)c(Cl)c1Cl [Pentachloronitrobenzene] | NR | –
CCN(CC)c1nc(C)cc(OP(=S)(OC)OC)n1 [Primifos-methyl] | NR | –
CCCCC(C#N)(Cn1cncn1)c1ccc(Cl)cc1 (stereo not drawn) [Systhane (Myclobutanil), Myclobutanil] | NR | –
N#CSCSc1nc2ccccc2s1 [TCMTB] | NR | –
CN1COCN(Cc2cnc(Cl)s2)/C1=N\[N+](=O)[O-] [Thiamethoxam] | 100% | reactivity with the immunoassay (in words) ([1]; among the test substances analyzed): significantly reactive; Absorbance at 450 nm (Analytical response) ([2]; Concentration of Thiamethoxam 0.5 Parts Per Billion): 1.3618; Absorbance at 450 nm (Analytical response) ([2]; Concentration of Thiamethoxam 3 Parts Per Billion): 1.0283; Absorbance at 450 nm (Analytical response) ([2]; Concentration of Thiamethoxam 20 Parts Per Billion): 0.6636; Absorbance at 450 nm (Analytical response) ([2]; Concentration of Thiamethoxam 120 Parts Per Billion): 0.3145
COC(=O)NC(=S)Nc1ccccc1NC(=S)NC(=O)OC [Thiophanate-methyl] | NR | –

Source: US7148029B2, “Immunoassay for neonicotinyl insecticides” (Syngenta Crop Protection, Inc., priority 1999, dated 2006)
